Read-outs that look alike come from different tables or passages of the source.
Tested on: A431 cells
Experiment: A431 cell proliferation assay (MTT), alone and in combination with Tarceva
Assay type: cell-based
Conditions: for IC50: further studies, Example 9, Table 7A, read-out: A431 Cell Proliferation (IC50 Value); for A431 Cell Proliferation CI Value: combination with Tarceva, CI <0.8 indicates synergy, Example 9, Table 7B
Procedure: This example describes an assay that measures the ability of compounds to inhibit the proliferation of cultured cells. This assay can also be used to assess whether combining two or more compounds produces additive, synergistic, or antagonistic effects on cell growth.
On day 1, the cells were seeded at 10^3 cells per well in 100 μl of complete media under standard conditions.
On day 2, the cells were washed and 100 μl serum free media was added. The cells were then incubated for at least 2 hours before the addition of compound(s). 20 μl of compound(s) was added to the respective wells and incubated at 37° C., 5% CO2 for 72 hrs.
On day 5, 50 μl of the MTT dye solution was added to each well. The plates were incubated at 37° C., 5% CO2 for 1 hr. The media was then aspirated and the cells were resuspended in […] of DMSO. The plates were allowed to incubate for 5 min at room temperature with gentle shaking.
The absorbance in each well was determined at 560 nm using a Polarstar plate reader.
The A431 cell line over-expresses the EGF receptor, and was utilized to assess the ability of AD4 compounds to inhibit EGF-mediated cell proliferation.

[1] = Homo sapiens, A-431, A431 cells

IC50 [1] | IC50 (A431 cells) | SMILES | A431 Cell Proliferation CI Value
1400 nM | – | Oc1c(C(Nc2ccc(F)cn2)c2cc(Cl)ccc2Cl)ccc2cccnc12 (stereo not shown) [AD4-13102] | 0.75
1400 nM | – | Oc1c(C(Nc2ccc(F)cn2)c2cccc(Cl)c2Cl)ccc2cccnc12 (stereo not shown) [AD4-13103] | 0.79
2800 nM | – | Oc1c(C(Nc2ccc(F)cn2)c2ccccc2Cl)ccc2cccnc12 (stereo not shown) [AD4-13104] | 0.67
650 nM | – | Cc1cc(NC(c2ccc(C(F)(F)F)c(F)c2)c2ccc3cccnc3c2O)ncc1Cl (stereo not shown) [AD4-13106] | 0.75
1600 nM | – | Cc1cc(NC(c2ccc(Cl)c(C(F)(F)F)c2)c2ccc3cccnc3c2O)ncc1Cl (stereo not shown) [AD4-13108] | 0.84
1500 nM | – | Oc1c(C(Nc2ccc(Cl)cn2)c2c(Cl)cccc2Cl)ccc2cccnc12 (stereo not shown) [AD4-13109] | 0.88
740 nM | – | Oc1c(C(Nc2ccc(Cl)cn2)c2cc(Cl)cc(Cl)c2Cl)ccc2cccnc12 (stereo not shown) [AD4-13111] | 0.95
2100 nM | – | Oc1c(C(Nc2ccc(F)cn2)c2c(F)cccc2Cl)ccc2cccnc12 (stereo not shown) [AD4-13112] | 0.73
– | – | Oc1c(C(Nc2ccc(F)cn2)c2ccc(Cl)c(Cl)c2)ccc2cccnc12 (stereo not shown) [AD4-13113] | 0.59
860 nM | – | Cc1cc(NC(c2cc(Cl)cc(Cl)c2)c2ccc3cccnc3c2O)ncc1F (stereo not shown) [AD4-13114] | 0.81
1600 nM | – | Cc1cc(NC(c2ccc(F)cc2Cl)c2ccc3cccnc3c2O)ncc1F (stereo not shown) [AD4-13115] | 0.74
– | – | Cc1cc(NC(c2ccccc2Cl)c2ccc3cccnc3c2O)ncc1F (stereo not shown) [AD4-13116] | 0.52
1300 nM | – | Cc1cc(NC(c2ccc3cccnc3c2O)c2c(F)cccc2Cl)ncc1F (stereo not shown) [AD4-13117] | 0.72
– | – | Cc1cc(NC(c2cc(Cl)ccc2Cl)c2ccc3cccnc3c2O)ncc1F (stereo not shown) [AD4-13118] | 0.60
1900 nM | – | Cc1cc(NC(c2ccc(C(F)(F)F)cc2)c2ccc3cccnc3c2O)ncc1Cl (stereo not shown) [AD4-13121] | 0.75
1600 nM | – | Cc1cc(NC(c2cc(Cl)cc(Cl)c2)c2ccc3cccnc3c2O)ncc1Cl (stereo not shown) [AD4-13122] | 0.84
1600 nM | – | Cc1cc(NC(c2ccc(C(F)(F)F)cc2C(F)(F)F)c2ccc3cccnc3c2O)ncc1Cl (stereo not shown) [AD4-13124] | 0.76
1700 nM | – | Cc1cc(NC(c2ccc3cccnc3c2O)c2c(Cl)cccc2Cl)ncc1F (stereo not shown) [AD4-13125] | 0.70
1900 nM | – | Oc1c(C(Nc2ccc(F)cn2)c2cc(Cl)cc(Cl)c2Cl)ccc2cccnc12 (stereo not shown) [AD4-13132] | 0.82
– | 1400 nM | Cc1cc(Cl)cnc1NC(c1ccc(F)cc1Cl)c1ccc2cccnc2c1O (stereo not shown) [AD4-13139] | 0.75
2400 nM | – | Oc1c(C(Nc2ncc(Cl)cc2F)c2cccc(C(F)(F)F)c2)ccc2cccnc12 (stereo not shown) [AD4-13145] | 0.86
2000 nM | – | Oc1c(C(Nc2cc(Cl)c(Cl)cn2)c2ccc(Cl)c(Cl)c2)ccc2cccnc12 (stereo not shown) [AD4-13177] | 0.9
– | – | COc1ccc(C(Nc2ncc(Cl)cc2C)c2ccc3cccnc3c2O)cc1OC (stereo not shown) [AD4-13193] | 0.92
– | – | COc1ccc(C(Nc2cc(C)c(Cl)cn2)c2ccc3cccnc3c2O)cc1OC (stereo not shown) [AD4-13194] | 0.97
– | – | COc1ccc(C(Nc2cc(Cl)c(Cl)cn2)c2ccc3cccnc3c2O)cc1OC (stereo not shown) [AD4-13195] | 0.81
– | – | COc1ccc(C(Nc2cc(C)c(Cl)cn2)c2ccc3cccnc3c2O)c(OC)c1OC (stereo not shown) [AD4-13196] | 0.69
– | – | COc1ccc(C(Nc2cc(Cl)c(Cl)cn2)c2ccc3cccnc3c2O)c(OC)c1OC (stereo not shown) [AD4-13197] | 0.63

From US9023354B2, “Combination therapy with MDM2 and EFGR inhibitors” (priority 2010, dated 2015)
